Laboratory results as given in ChEMBL document CHEMBL3430912, “GSK Tres Cantos Anti-Kinetoplastid Screening (TCAKS) Data”.

Assays:
[1] = tested on: Trypanosoma cruzi; experiment: GSK_TCAKS: pIC50 Trypanosoma cruzi viability assay using beta-GAL activity. This assay was run at single shot at 5uM compound concentration per well. The biological reagents consisted of NIH-3T3 host cells and trypomastigotes parasitic cells; both cell types were set to a 3.3 * 10^5 cells/mL dilution in assay DMEM by means of a CASY cell counter device using a 60um capillary. 6 uL of the mixture were dispensed per well (about 1 * 10^3 host-cells and 1 * 10^3 parasites) with a Multidrop Combi dispenser. […] In all wells, the percentage of DMSO never exceeded 0.5%. Plates incubated for four days at 37C, 5% CO2. The substrate used for the assay fluorescence intensity (FLINT) readout was resorufin-beta-D-galactopiranoside (Sigma-Aldrich) at 5uM per well. It was diluted in PBS supplemented with the soft detergent Igepal (Fluka).; format: functional, organism-based, Mus musculus; details: Tulahuen, NIH3T3
[2] = tested on: Trypanosoma cruzi; experiment: (§1) GSK_TCAKS: pIC50 Trypanosoma cruzi Imaging: Infected Cells. […] Cells were then washed once with PBS before infection. T. cruzi trypomastigotes, collected at days 5 to 8 after infection from LLC-MK2 parasite infected cultures, were allowed to swim out for 4h at 37C from a centrifuged pellet (2,500 rpm/10 min/room temperature). Trypomastigotes were then collected and counted in a CASY Cell Counter. Trypomastigotes, in supplemented DMEM, were added to H9c2 cultures in a multiplicity of infection of 1 and incubated for 18 h. Cells were washed once with PBS before incubation of the infected H9c2 monolayer with trypsin (Life-Technologies) to detach cells from the flask. Cells were counted in a CASY Cell Counter using a 150 um capillary and their density set at 5 * 10^4 cells per mL in supplemented assay DMEM. Infected H9c2 were dispensed into 384-well poly-lysine coated assay plates at 50uL per well using a Multidrop Combi dispenser. After seeding them, the plates were incubated at 37C, 5% CO2 for 72h. Cultures were then fixed and stained by addition of 50 uL of a solution containing 8% formaldehyde and 4 uM DRAQ5 DNA dye (BioStatus, UK) per well. […] Five images were collected per well for reliable statistical analysis. Automated image analysis was performed with a script developed on Acapella High Content Imaging and Analysis Software (PerkinElmer). Output: percentage of infected cells per well as a second infection marker.; format: functional, organism-based, Rattus norvegicus; details: H9c2, 4 h
[3] = tested on: Trypanosoma cruzi; experiment: GSK_TCAKS: pIC50 Trypanosoma cruzi Imaging: Amastigotes/Cell. […] Cells were then washed once with PBS before infection. T. cruzi trypomastigotes, collected at days 5 to 8 after infection from LLC-MK2 parasite infected cultures, were allowed to swim out for 4h at 37C from a centrifuged pellet (2,500 rpm/10 min/room temperature). Trypomastigotes were then collected and counted in a CASY Cell Counter. Trypomastigotes, in supplemented DMEM, were added to H9c2 cultures in a multiplicity of infection of 1 and incubated for 18 h. Cells were washed once with PBS before incubation of the infected H9c2 monolayer with trypsin (Life-Technologies) to detach cells from the flask. Cells were counted in a CASY Cell Counter using a 150 um capillary and their density set at 5 * 10^4 cells per mL in supplemented assay DMEM. Infected H9c2 were dispensed into 384-well poly-lysine coated assay plates at 50uL per well using a Multidrop Combi dispenser. After seeding them, the plates were incubated at 37C, 5% CO2 for 72h. Cultures were then fixed and stained by addition of 50 uL of a solution containing 8% formaldehyde and 4 uM DRAQ5 DNA dye (BioStatus, UK) per well. […] Five images were collected per well for reliable statistical analysis. Automated image analysis was performed with a script developed on Acapella High Content Imaging and Analysis Software (PerkinElmer). Output: number of amastigotes per cell as infection level measurement.; format: functional, organism-based, Rattus norvegicus; details: H9c2, 4 h
[4] = tested on: Trypanosoma cruzi; experiment: as §1, with “H2C9” for “Trypanosoma cruzi”, “H9c2 Host Cardiomyocytes.” for “Infected Cells.”, “Number” for “percentage”, “H9c2 Host Cardiomyocytes nuclei to determine drug-related cytotoxicity.” for “infected cells per well as a second infection marker.”; format: functional, organism-based, Rattus norvegicus; details: H9c2, 4 h
[5] = tested on: Leishmania donovani; experiment: GSK_TCAKS: pIC50 Leishmania donovani viability assay using fluorescence intensity. Assay plates (1536-well) were prepared by adding 30nL per well of compound. For single shot assay, the final compound concentration was 5uM. […] Briefly, eGFP LdBOB axenic amastigotes were harvested, fixed and counted in a CASY cell counter (Roche-Applied Science). A final concentration of 1.5 * 10^5 cells per well were prepared in amastigote media containing 500 U/mL penicillin/streptomycin (Invitrogen) and 6uL was dispensed to each experimental well using a Multidrop Combi dispenser (Thermo Scientific). 6uL of assay media was dispensed to control columns used as reference for 100% compound response. Following incubation for 72 h at 37C, 5% CO2, 2 uL of resazurin was added to each well at a final concentration of 0.5 mM in phosphate buffered saline (PBS) with IGEPAL (Sigma-Aldrich), 0.05% (v/v).; format: functional, organism-based
[6] = tested on: Leishmania donovani; experiment: GSK_TCAKS: pIC50 Leishmania donovani Imaging: Infected Macrophages. Assay plates (384-well) were prepared by adding 250nL of compound to each well. For single shot assay, the final compound concentration was 5 uM. […] Automated image analysis was performed with a script developed on Acapella High Content Imaging and Analysis Software (PerkinElmer). Output: Percent of infected macrophage cells were reported for each well.; format: functional, organism-based, Homo sapiens; details: THP-1
[7] = tested on: Leishmania donovani; experiment: GSK_TCAKS: pIC50 Leishmania donovani Imaging: Amastigotes/Macrophages. Assay plates (384-well) were prepared by adding 250nL of compound to each well. For single shot assay, the final compound concentration was 5 uM. […] Automated image analysis was performed with a script developed on Acapella High Content Imaging and Analysis Software (PerkinElmer). Output: Average number of amastigotes per macrophage cell were reported for each well.; format: functional, organism-based, Homo sapiens; details: THP-1
[8] = tested on: Leishmania donovani; experiment: GSK_TCAKS: pIC50 Leishmania donovani Imaging: THP-1 Host Macrophages. Assay plates (384-well) were prepared by adding 250nL of compound to each well. For single shot assay, the final compound concentration was 5 uM. […] Automated image analysis was performed with a script developed on Acapella High Content Imaging and Analysis Software (PerkinElmer). Output: THP-1 cell count were reported for each well.; format: functional, organism-based, Homo sapiens
[9] = tested on: Trypanosoma brucei brucei; experiment: GSK_TCAKS: pIC50 Trypanosoma brucei viability assay using fluorescence intensity. Assay plates (1536-well) were prepared by dispensing 25nL of compound solution per well using an Echo acoustic dispenser (Labcyte).; format: functional, organism-based; details: Lister 427, 2 h
[10] = tested on: Trypanosoma brucei brucei; experiment: GSK_TCAKS: pIC50 Trypanosoma brucei viability assay using luminiscence. Assay plates (1536-well) were prepared. T. brucei cultures were harvested and counted in a CASY cell counter. A parasite suspension was prepared at a final concentration of 5 * 10^4 cells/mL in complete HMI9 medium and 6uL was dispensed to all wells containing compounds using a Multidrop Combi dispenser. 6uL of HMI9 media with 0.4% DMSO were dispensed to control columns. Plates were incubated for 24 h at 37C, 5% CO2 then tempered for 10 min at room temperature. ATP content was quantified by adding 4 uL of CellTiter-Glo Reagent (Promega) according to the manufacturer's instructions. Luminescence was measured using a ViewLux.; format: functional, organism-based; details: Lister 427, CASY
[11] = GSK_TCAKS: pIC50 HepG2 human cell line viability assay using luminiscence. […] Seeding density was checked to ensure that new mono-layers were not more than 50% confluent at the time of harvesting. Cell suspension was added to 500 mL of the same medium at a final density of 1.2 * 10^5 cells/mL. This cell suspension was dispensed (25 uL, 3000 cells per well) into 384-well clear-bottom plates using a Multidrop Combi dispenser. Prior to addition of the cell suspension, the screening compounds (250 nL) were pre-dispensed into the plates with an Echo liquid handler. Plates were incubated for 48 h at 37C, 5% CO2. After incubation, plates equilibrated at room temperature for 30 min before proceeding to develop the luminescent signal. The signal developer, CellTiter-Glo Reagent, was allowed to equilibrate at room temperature for 30 min and added to the plates (25uL per well) using a Multidrop Combi dispenser. Plates were left for 10 min at room temperature for stabilization and then read using a ViewLux.; format: toxicity, cell-based
[12] = target: Sterol 14-alpha demethylase (Trypanosoma cruzi (strain CL Brener), UniProt Q7Z1V1); experiment: GSK_TCAKS: pIC50 CYP51 from Trypanosoma cruzi.; format: functional
Sequence of Sterol 14-alpha demethylase (Q7Z1V1 whole entry): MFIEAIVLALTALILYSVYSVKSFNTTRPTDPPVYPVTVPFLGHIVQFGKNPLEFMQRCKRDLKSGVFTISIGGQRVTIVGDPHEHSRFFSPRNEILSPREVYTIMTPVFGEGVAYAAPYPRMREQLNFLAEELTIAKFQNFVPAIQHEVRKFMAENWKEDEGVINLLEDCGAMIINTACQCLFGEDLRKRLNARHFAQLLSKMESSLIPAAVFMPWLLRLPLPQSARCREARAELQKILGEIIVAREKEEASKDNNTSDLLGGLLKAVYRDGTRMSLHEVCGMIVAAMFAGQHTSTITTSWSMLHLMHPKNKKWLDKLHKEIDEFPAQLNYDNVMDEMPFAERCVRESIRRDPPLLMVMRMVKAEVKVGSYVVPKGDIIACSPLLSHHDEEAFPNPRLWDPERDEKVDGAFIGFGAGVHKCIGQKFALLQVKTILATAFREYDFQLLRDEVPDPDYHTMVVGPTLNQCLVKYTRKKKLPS

Row | Compound | IC50 [1] | IC50 [2] | IC50 [3] | IC50 [4] | IC50 [5] | IC50 [6] | IC50 [7] | IC50 [8] | IC50 [9] | IC50 [10] | IC50 at 48 h [11] | IC50 [12]
1 | Oc1cc(CSc2ccc(Cl)cc2)nc(-c2ccccn2)n1 | 1 µM | 1.58 µM | 0.794 µM | 3.16 µM | 1.58 µM | 5.01 µM | 2 µM | 3.98 µM | 0.794 µM | 1 µM | > 100 µM | 63.1 µM
2 | CCc1c(C)nc(-n2nc(C)cc2NC(=O)COc2ccccc2F)[nH]c1=O | 0.631 µM | 0.631 µM | 0.158 µM | 2.51 µM | 0.126 µM | 7.94 µM | 5.01 µM | 3.98 µM | 0.158 µM | 0.2 µM | > 100 µM | > 100 µM
3 | COc1ccc(C(=O)[C@H]2C[C@@H]2CN(Cc2ccccn2)Cc2ccccn2)cc1 | 1.58 µM | 1.58 µM | 1 µM | 25.1 µM | 7.94 µM | 1.58 µM | 1.26 µM | > 50.1 µM | 6.31 µM | 15.8 µM | > 100 µM | 39.8 µM
4 | CCS(=O)(=O)c1cccc(C(=O)Nc2nc(-c3ccccn3)cs2)c1 | 1.58 µM | 2.51 µM | 1.58 µM | 3.98 µM | 1.26 µM | 3.98 µM | 3.16 µM | 20 µM | 0.501 µM | 0.631 µM | 25.1 µM | 63.1 µM
5 | COc1cc2c(cc1OC)[C@H]1[C@@H](C)c3ccc(OC)c(OC)c3CN1CC2 | 25.1 µM | > 50.1 µM | 20 µM | > 50.1 µM | 2.51 µM | 20 µM | 15.8 µM | > 50.1 µM | 25.1 µM | > 39.8 µM | > 100 µM | 79.4 µM
6 | O=[N+]([O-])c1ccc(-c2nnn(-c3cccnc3)n2)o1 | 0.251 µM | > 50.1 µM | 0.0631 µM | 6.31 µM | 15.8 µM | > 50.1 µM | 50.1 µM | 12.6 µM | 0.316 µM | 0.501 µM | > 100 µM | 3.98 µM
7 | O=[N+]([O-])c1ccc(-c2nnn(-c3ccc(Cl)cc3)n2)o1 | 0.251 µM | 0.794 µM | 0.0794 µM | 10 µM | 6.31 µM | > 50.1 µM | > 50.1 µM | > 50.1 µM | 0.316 µM | 1 µM | > 100 µM | > 100 µM
8 | COCc1cc(Nc2ccc(Cl)cc2)nc(-c2ccccn2)n1 | 1.58 µM | 5.01 µM | 2.51 µM | 1.26 µM | 2.51 µM | 1.26 µM | 0.794 µM | 20 µM | 20 µM | > 39.8 µM | 12.6 µM | > 100 µM
9 | COCc1cc(Nc2ccccc2)nc(-c2ccccn2)n1 | 5.01 µM | 25.1 µM | 12.6 µM | 3.98 µM | 7.94 µM | 7.94 µM | 5.01 µM | > 50.1 µM | > 39.8 µM | > 39.8 µM | 100 µM | > 100 µM
10 | CNC(=O)Oc1ccc(C(=O)NCc2ccccc2)cc1OC(=O)NC | 31.6 µM | 39.8 µM | 39.8 µM | > 50.1 µM | > 50.1 µM | > 50.1 µM | > 50.1 µM | > 50.1 µM | 0.126 µM | 0.398 µM | > 100 µM | > 100 µM
11 | CC(C)(C)Nc1nc(Nc2ccc3c(c2)CS(=O)(=O)C3)nc2[nH]ccc12 | 1 µM | 31.6 µM | 20 µM | 1 µM | 7.94 µM | 6.31 µM | 5.01 µM | 20 µM | 0.794 µM | 5.01 µM | 31.6 µM | 25.1 µM
